What was measured:
PAK4 = molecular target: T1, PAK4 (Homo sapiens, UniProt O96013); assay: PAK4 HTRF kinase assay; type: biochemical
T1 construct: purchased Sigma-Aldrich

[1] = test system: human gastric cancer cells; parameters: method as in PMID 22085492; conditions: cited from earlier work
A549 cell line = assay: MTT cell proliferation assay, A549; type: cell-based; conditions: Homo sapiens, 50% cell growth inhibition after 24 h of drug exposure
Description: (§1) Meanwhile, the tumor cell line HT1080, whose growth is not dependent on PAK4, was used to test the potential off-target effects of the potent PAK4 inhibitors.
(§2) The human pulmonary carcinoma cell line A549 and the human fibrosarcoma cell line HT1080 were cultured in RPMI-1640 medium containing 10% fetal bovine serum (FBS), at 37 °C in a humidified atmosphere containing 5% CO2.
(§3) The in vitro antiproliferative activity of some of the target compounds was determined by the MTT assay (Amresco, Seattle, WA, USA). A suspension of 100 µL human cancer cells (5 × 10^4/mL) was plated in a 96-well cell culture plate and incubated with 5% CO2 at 37 °C for 24 h. Then cells were exposed to various concentrations of compounds and further cultured for 24 h. After that, MTT was added and absorbance was measured at 490 nm using a EL × 800 microplate reader (BioTek, Winooski, VT, USA). Dose-response curves were plotted to determine the IC50 values using GraphPad Prism 5.0. Each IC50 value was expressed as mean ± standard deviation.

HT1080 = assay: MTT cell proliferation assay, HT1080; type: cell-based, human; conditions: for IC50: Homo sapiens, HT-1080, 50% cell growth inhibition after 24 h of drug exposure, MTT assay; for Activity against HT1080 (off-target check): growth not dependent on PAK4
Description: as §1, §2, §3

A549 cells [2] = assay: Transwell cell migration assay; type: cell-based, human; conditions: 24 h
Description: (§4) We next examined the effects of compound 8d on the cycle progression of A549. Cells were treated with compound 8d at varying concentrations (1.0, 3.0, 9.0 μM) and vehicle (dimethyl sulfoxide−DMSO) for 24 h, and subjected to flow cytometry analysis to determine the distribution of cells in various phases of the cell cycle. […] PAK4 activity is involved in cytoskeleton dynamics and cancer cell migration and invasion; therefore, the inhibitory effect of 8d on A549 cell migration and invasion were analyzed.
(§5) Cell migration assays were evaluated in transwell chambers (Corning Incorporated, Corning, NY, USA). Cell invasion assays were evaluated in Matrigel invasion chambers (Becton-Dickinson). First, 0.5 × 10^5 tumor cells were plated in the top chamber with RPMI-1640 medium without FBS. Test compound was added to the bottom chamber with 500 µL medium containing 20% FBS. After incubation for 24 h at 37 °C, the cells were fixed in 100% methanol and stained with 0.1% crystal violet, then washed with PBS; the cells that had not migrated from the top surface of the filters were removed with cotton. Migrated cells were quantified by counting them in three randomly selected fields on the diameter under a microscope at 200× magnification

A549 cells [3] = assay: Matrigel cell invasion assay; type: cell-based, human; conditions: A549, Matrigel chamber, 24 h
Description: as §4, §5

T1 sequence (O96013 whole entry): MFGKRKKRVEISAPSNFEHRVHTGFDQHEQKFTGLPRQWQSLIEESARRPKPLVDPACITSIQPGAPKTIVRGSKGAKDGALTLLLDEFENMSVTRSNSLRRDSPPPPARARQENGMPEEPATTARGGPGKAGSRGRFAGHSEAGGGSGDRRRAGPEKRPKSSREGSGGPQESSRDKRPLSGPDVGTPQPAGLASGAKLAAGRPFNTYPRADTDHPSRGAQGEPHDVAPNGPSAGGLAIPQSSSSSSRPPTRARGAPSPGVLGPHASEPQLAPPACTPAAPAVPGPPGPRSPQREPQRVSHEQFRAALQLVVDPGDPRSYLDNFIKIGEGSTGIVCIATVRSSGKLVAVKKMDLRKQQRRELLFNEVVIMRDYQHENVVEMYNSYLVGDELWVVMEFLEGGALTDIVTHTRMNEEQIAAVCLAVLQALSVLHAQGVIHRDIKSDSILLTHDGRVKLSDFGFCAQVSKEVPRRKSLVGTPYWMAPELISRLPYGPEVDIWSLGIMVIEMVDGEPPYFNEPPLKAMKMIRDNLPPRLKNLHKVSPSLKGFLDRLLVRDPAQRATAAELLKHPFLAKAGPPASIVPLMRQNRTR

Row | SMILES | melting point [°C] | IC50 (PAK4) [µM] | further results
1 | Clc1cccc(N2CCN(c3nc(Nc4cc(C5CC5)[nH]n4)c4cc(Cl)ccc4n3)CC2)c1 [Compound 7f, 6-Chloro-2-(4-(3-chlorophenyl)piperazin-1-yl)-N-(5-cyclopropyl-1H-pyrazol-3-yl)quinazolin-4-amine] | 229.9 to 232.6 | 0.49 | 
2 | Clc1ccc2nc(N3CCN(c4ccc(Br)cc4)CC3)nc(Nc3cc(C4CC4)[nH]n3)c2c1 [Compound 7c, 2-(4-(4-Bromophenyl)piperazin-1-yl)-6-chloro-N-(5-cyclopropyl-1H-pyrazol-3-yl)quinazolin-4-amine] | 248.7 to 251.9 | 0.1 | 
3 | Cc1cnc(N2CCN(c3nc(Nc4cc(C5CC5)[nH]n4)c4cc(Cl)ccc4n3)CC2)nc1 [Compound 9b, 6-Chloro-N-(5-cyclopropyl-1H-pyrazol-3-yl)-2-(4-(5-methylpyrimidin-2-yl)piperazin-1-yl)quinazolin-4-amine] | 262.8 to 264.7 | 0.11 | 
4 | COc1cccc(Nc2nc(NCC3CCCO3)c3ccccc3n2)c1 (centres unmarked) [LCH-7749944, N^2-(3-methoxyphenyl)-N^4-((tetrahydrofuran-2-yl)methyl)quinazoline-2,4-diamine] |  |  | Effect on proliferation, migration, and invasion [1]: effectively suppressed
5 | Clc1ccc2nc(N3CCN(c4ccccc4)CC3)nc(Nc3cc(C4CC4)[nH]n3)c2c1 [Compound 7a, 6-Chloro-N-(5-cyclopropyl-1H-pyrazol-3-yl)-2-(4-phenylpiperazin-1-yl)quinazolin-4-amine] | 239.5 to 240.8 | 0.85 | 
6 | COc1ccnc(N2CCN(c3nc(Nc4cc(C5CC5)[nH]n4)c4cc(Cl)ccc4n3)CC2)c1 [Compound 8b, 6-Chloro-N-(5-cyclopropyl-1H-pyrazol-3-yl)-2-(4-(4-methoxypyridin-2-yl)piperazin-1-yl)quinazolin-4-amine] | 210.3 to 211.6 | 0.38 | 
7 | COc1ccc(N2CCN(c3nc(Nc4cc(C5CC5)[nH]n4)c4cc(Cl)ccc4n3)CC2)cc1 [Compound 7g, 6-Chloro-N-(5-cyclopropyl-1H-pyrazol-3-yl)-2-(4-(4-methoxyphenyl)piperazin-1-yl)quinazolin-4-amine] | 237.1 to 239.5 | 0.3 | 
8 | Fc1ccc(N2CCN(c3nc(Nc4cc(C5CC5)[nH]n4)c4cc(Cl)ccc4n3)CC2)cc1 [Compound 7i, 6-Chloro-N-(5-cyclopropyl-1H-pyrazol-3-yl)-2-(4-(4-fluorophenyl)piperazin-1-yl)quinazolin-4-amine] | 228.8 to 231 | 0.2 | 
9 | Clc1ccc(N2CCN(c3nc(Nc4cc(C5CC5)[nH]n4)c4cc(Cl)ccc4n3)CC2)cc1 [Compound 7e, 6-Chloro-2-(4-(4-chlorophenyl)piperazin-1-yl)-N-(5-cyclopropyl-1H-pyrazol-3-yl)quinazolin-4-amine] | 250 to 251.8 | 0.16 | 
10 | Clc1ccc2nc(N3CCN(c4ncc(Br)cn4)CC3)nc(Nc3cc(C4CC4)[nH]n3)c2c1 [Compound 9c, 2-(4-(5-Bromopyrimidin-2-yl)piperazin-1-yl)-6-chloro-N-(5-cyclopropyl-1H-pyrazol-3-yl)quinazolin-4-amine] | 280.6 to 282.7 | 0.068 | IC50 (A549 cell line): 4.75 µM; IC50 (HT1080): 39.3 µM; Activity against HT1080 (off-target check) (HT1080): negligible activity
11 | Cc1ccc(N2CCN(c3nc(Nc4cc(C5CC5)[nH]n4)c4cc(Cl)ccc4n3)CC2)cc1 [Compound 7b, 6-Chloro-N-(5-cyclopropyl-1H-pyrazol-3-yl)-2-(4-(p-tolyl)piperazin-1-yl)quinazolin-4-amine] | 204.9 to 207.5 | 0.24 | 
12 | Clc1ccc2nc(N3CCC(N4CCCCC4)CC3)nc(Nc3cc(C4CC4)[nH]n3)c2c1 [Compound 6a, ([1,4′-Bipiperidin]-1′-yl)-6-chloro-N-(5-cyclopropyl-1H-pyrazol-3-yl)quinazolin-4-amine] | 208.3 to 209.6 | 0.44 | 
13 | Clc1ccc2nc(N3CCN(c4ccccn4)CC3)nc(Nc3cc(C4CC4)[nH]n3)c2c1 [Compound 8a, 6-Chloro-N-(5-cyclopropyl-1H-pyrazol-3-yl)-2-(4-(pyridin-2-yl)piperazin-1-yl)quinazolin-4-amine] | 184.4 to 186.7 | 0.31 | 
14 | Clc1ccc2nc(N3CCC(N4CCOCC4)CC3)nc(Nc3cc(C4CC4)[nH]n3)c2c1 [Compound 6b] | 214.3 to 216.6 | 0.56 | 
15 | Clc1ccc2nc(N3CCN(c4ccc(Br)cn4)CC3)nc(Nc3cc(C4CC4)[nH]n3)c2c1 [Compound 8d, 2-(4-(5-Bromopyridin-2-yl)piperazin-1-yl)-6-chloro-N-(5-cyclopropyl-1H-pyrazol-3-yl)quinazolin-4-amine] | 270.5 to 272.8 | 0.06 | Effect on cell migration (A549 cells [2]): decreased the migration and invasion potential; IC50 (A549 cell line): 4.69 µM; IC50 (HT1080): 21.5 µM; Activity against HT1080 (off-target check) (HT1080): negligible activity; Effect on cell invasion (A549 cells [3]): decreased the migration and invasion potential
16 | FC(F)(F)c1ccc(N2CCN(c3nc(Nc4cc(C5CC5)[nH]n4)c4cc(Cl)ccc4n3)CC2)nc1 [Compound 8e, 6-Chloro-N-(5-cyclopropyl-1H-pyrazol-3-yl)-2-(4-(5-(trifluoromethyl)pyridin-2-yl)piperazin-1-yl)quinazol-in-4-amine] | 247.6 to 259.6 | 0.22 | 
17 | COc1cccc(N2CCN(c3nc(Nc4cc(C5CC5)[nH]n4)c4cc(Cl)ccc4n3)CC2)c1 [Compound 7h, 6-Chloro-N-(5-cyclopropyl-1H-pyrazol-3-yl)-2-(4-(3-methoxyphenyl)piperazin-1-yl)quinazolin-4-amine] | 199.9 to 201.8 | 0.69 | 
18 | Clc1ccc2nc(N3CCN(c4ncccn4)CC3)nc(Nc3cc(C4CC4)[nH]n3)c2c1 [Compound 9a, 6-Chloro-N-(5-cyclopropyl-1H-pyrazol-3-yl)-2-(4-(pyrimidin-2-yl)piperazin-1-yl)quinazolin-4-amine] | 249.3 to 250.5 | 0.38 | 
19 | FC(F)(F)c1ccc(N2CCN(c3nc(Nc4cc(C5CC5)[nH]n4)c4cc(Cl)ccc4n3)CC2)cc1 [Compound 7d, 6-Chloro-N-(5-cyclopropyl-1H-pyrazol-3-yl)-2-(4-(4-(trifluoromethyl)phenyl)piperazin-1-yl)quinazolin-4-amine] | 256.4 to 257.8 | 0.65 | 
20 | Cc1ccc(N2CCN(c3nc(Nc4cc(C5CC5)[nH]n4)c4cc(Cl)ccc4n3)CC2)nc1 [Compound 8c, 6-Chloro-N-(5-cyclopropyl-1H-pyrazol-3-yl)-2-(4-(5-methylpyridin-2-yl)piperazin-1-yl)quinazolin-4-amine] | 263 to 265.4 | 0.087 | 

— publication PMC6100240, “Discovery of 2-(4-Substituted-piperidin/piperazine-1-yl)-N-(5-cyclopropyl-1H-pyrazol-3-yl)-quinazoline-2,4-diamines as PAK4 Inhibitors with Potent A549 Cell Proliferation, Migration, and Invasion Inhibition Activity” (Molecules : A Journal of Synthetic Chemistry and Natural …, 2018)
